The target of test [1] is T1, endogenous phosphorylated LRRK2 (S935) (Homo sapiens, UniProt Q5S007).
T1 construct: Detection of endogenous phosphorylated LRRK2 (S935) in A549 cells; endogenous in cells; host or cells: A549
Description: detection of endogenous phosphorylated LRRK2 (S935) in A549 cells (Western blot). It counts as cell-based. The settings on record: 15 hours; for IC50: A549 cells, Table 11, read-out: IC50 of inhibitory activity on LRRK2 (S935) activity in A549 cells (column head: Inhibition rate); for inhibition at 2 µM / inhibition at 1 µM: LRRK2 (S935) activity in A549 cells, read-out: Inhibition rate. The method, then:
Detection of endogenous phosphorylated LRRK2 (S935) in A549 cells
A549 cells were resuspended in serum-free 1640 medium at a density of 1×10^6 cells/ml, and inoculated into a 6-well plate at 1 ml/well, and cultured at 37°C and 5% CO2 for 6-8 hours. 1 microliter of compound solution in DMSO or DMSO (volume ratio of 0.1%) was added, mixed evenly, and cultivated at 37°C and 5% CO2 for 15 hours. Cells were collected, 50 microliters of RIPA III lysis solution were added to each sample to lyse cells on ice for 15 minutes, centrifuged at 4°C and 13000 rpm for 30 minutes, the supernatant was collected, the protein concentration of cell lysis solution was measured by BCA, and the protein concentrations of all samples were normalized. 5×sample loading buffer were added and kept at 95°C for 10 minutes. The content of phosphorylated S935 of endogenous LRRK2 was detected by Western blot, using antibody against phosphorylated LRRK2 (S935) (Abcam#133450). The signal intensity of phosphorylated LRRK2 (S935) was counted by Image J, the signal of phosphorylated LRRK2 (S935) in a sample was normalized by β-actin, and the data was analyzed.
A general note: Immunoblotting shows a protein as a band on a membrane.

Test [2] has as its target LRRK2 (Homo sapiens, UniProt Q5S007). Description: experiment of inhibiting LRRK2 kinase activity (ADP-Glo method). It counts as biochemical. The settings on record: Table 4. As for the experimental part: The inhibitory effect of the compounds on the activity of LRRK2 kinase was detected by ADP-Glo method. The diluted solutions of the compounds were transfered to a 384-well plate (784075, Greiner), the plate was sealed and centrifuged at a speed of 1000 g for 1 minute. A kinase solution at 2-fold final concentration was prepared with 1×kinase buffer, 2.5 µl of the kinase solution with 2-fold final concentration was added to the wells, the plate was centrifuged at 1000 g for 30 seconds, and left at room temperature for 10 minutes. A mixed solution of ATP and kinase substrate at 2-fold final concentration was prepared with 1×kinase buffer, and 2.5 µL of mixed solution of ATP and substrate at 2-fold final concentration was added to start the reaction. The plate was centrifuged at 1000 g for 30 seconds, sealed and left at room temperature for 2 hours. 4 µL of ADP-Glo reagent was added and incubated at room temperature for 40 minutes; 8 µL kinase detection reagent was added and incubated at room temperature for another 40 minutes. The luminescence signal value was detected on Envision 2104 microplate reader. The conversion inhibition rate%=100-(compound signal value-positive control signal value)/(blank control signal value-positive control signal value)×100.
The IC50 was calculated with GraphPad 6.0 and the dose-responsive curve of the compounds was plotted as follows: y=Bottom+(Top-Bottom)/(1+10^((logic50-x)×hillslope)), where x was logarithm of inhibitor concentration; and y was % inhibition rate.
A general note: In ADP-Glo the light output rises with the ADP produced.

As a reminder, the IC50 is the concentration that inhibits the measured activity by half. As a reminder, the inhibition is the percentage by which the read-out fell short of the control.

T1 sequence (Q5S007 whole entry): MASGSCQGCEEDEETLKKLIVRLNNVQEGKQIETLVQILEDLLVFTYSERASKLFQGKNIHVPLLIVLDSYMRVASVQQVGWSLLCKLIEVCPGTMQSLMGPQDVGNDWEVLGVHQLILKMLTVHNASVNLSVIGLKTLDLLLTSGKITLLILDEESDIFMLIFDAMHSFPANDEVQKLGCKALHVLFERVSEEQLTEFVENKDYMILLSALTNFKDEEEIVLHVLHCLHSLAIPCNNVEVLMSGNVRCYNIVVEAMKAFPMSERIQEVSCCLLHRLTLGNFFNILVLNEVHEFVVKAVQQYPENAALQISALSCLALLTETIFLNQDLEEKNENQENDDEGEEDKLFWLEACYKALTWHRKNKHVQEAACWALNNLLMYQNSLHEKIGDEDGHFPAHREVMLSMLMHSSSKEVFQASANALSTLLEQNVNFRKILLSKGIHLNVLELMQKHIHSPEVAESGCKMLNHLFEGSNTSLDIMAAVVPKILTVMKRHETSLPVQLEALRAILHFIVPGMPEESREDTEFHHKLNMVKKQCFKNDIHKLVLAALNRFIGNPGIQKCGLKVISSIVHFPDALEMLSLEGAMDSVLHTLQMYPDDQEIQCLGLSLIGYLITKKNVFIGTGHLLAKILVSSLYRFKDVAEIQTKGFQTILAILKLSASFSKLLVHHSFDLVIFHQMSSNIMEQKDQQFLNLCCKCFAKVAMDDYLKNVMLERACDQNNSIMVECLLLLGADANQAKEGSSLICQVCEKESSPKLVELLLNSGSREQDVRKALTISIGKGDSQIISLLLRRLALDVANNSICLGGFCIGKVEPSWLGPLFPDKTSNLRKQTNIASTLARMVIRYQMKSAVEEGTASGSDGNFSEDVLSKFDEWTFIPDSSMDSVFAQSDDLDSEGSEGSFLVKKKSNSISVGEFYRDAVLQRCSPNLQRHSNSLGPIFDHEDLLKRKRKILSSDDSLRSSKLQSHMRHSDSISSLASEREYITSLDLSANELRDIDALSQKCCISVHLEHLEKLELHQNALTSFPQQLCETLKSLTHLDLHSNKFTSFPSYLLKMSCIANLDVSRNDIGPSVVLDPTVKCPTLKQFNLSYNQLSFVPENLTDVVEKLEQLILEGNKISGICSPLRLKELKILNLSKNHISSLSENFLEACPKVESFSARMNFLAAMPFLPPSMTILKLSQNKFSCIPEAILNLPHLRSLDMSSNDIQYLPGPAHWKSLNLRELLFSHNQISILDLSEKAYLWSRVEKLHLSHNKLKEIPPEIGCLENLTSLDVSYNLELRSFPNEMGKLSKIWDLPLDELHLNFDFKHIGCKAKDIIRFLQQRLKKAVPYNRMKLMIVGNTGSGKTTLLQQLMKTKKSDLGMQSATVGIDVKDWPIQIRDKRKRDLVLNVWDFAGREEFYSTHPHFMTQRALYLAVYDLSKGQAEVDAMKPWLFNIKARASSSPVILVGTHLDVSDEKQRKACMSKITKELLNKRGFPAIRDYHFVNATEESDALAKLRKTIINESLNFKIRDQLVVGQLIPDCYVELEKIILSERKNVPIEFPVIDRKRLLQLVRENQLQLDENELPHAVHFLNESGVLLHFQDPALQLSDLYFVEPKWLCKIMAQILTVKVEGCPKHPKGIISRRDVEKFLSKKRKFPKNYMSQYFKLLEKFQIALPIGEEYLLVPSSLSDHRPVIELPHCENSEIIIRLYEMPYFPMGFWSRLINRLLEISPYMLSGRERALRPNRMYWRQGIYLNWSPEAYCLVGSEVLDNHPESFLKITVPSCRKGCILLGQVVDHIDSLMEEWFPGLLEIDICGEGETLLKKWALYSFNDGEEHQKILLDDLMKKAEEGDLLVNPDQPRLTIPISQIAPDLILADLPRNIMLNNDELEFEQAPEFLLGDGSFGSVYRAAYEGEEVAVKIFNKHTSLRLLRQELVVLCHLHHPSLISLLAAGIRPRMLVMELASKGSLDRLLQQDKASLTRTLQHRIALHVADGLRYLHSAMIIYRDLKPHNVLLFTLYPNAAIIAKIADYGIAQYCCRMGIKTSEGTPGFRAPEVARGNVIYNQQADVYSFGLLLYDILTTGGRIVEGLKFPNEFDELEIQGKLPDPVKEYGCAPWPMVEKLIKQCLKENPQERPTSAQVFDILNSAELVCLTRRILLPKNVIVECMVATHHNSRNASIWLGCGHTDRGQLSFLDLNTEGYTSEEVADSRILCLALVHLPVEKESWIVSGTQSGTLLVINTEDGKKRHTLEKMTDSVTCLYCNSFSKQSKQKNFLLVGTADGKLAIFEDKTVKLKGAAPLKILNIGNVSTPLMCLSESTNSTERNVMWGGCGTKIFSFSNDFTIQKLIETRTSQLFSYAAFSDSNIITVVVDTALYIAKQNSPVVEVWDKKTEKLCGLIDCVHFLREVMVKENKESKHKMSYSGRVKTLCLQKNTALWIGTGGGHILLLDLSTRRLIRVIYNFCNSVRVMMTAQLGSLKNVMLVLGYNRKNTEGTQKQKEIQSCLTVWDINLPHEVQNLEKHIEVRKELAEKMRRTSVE
Sequence of LRRK2 (Q5S007 whole entry): as above

`CN1CCOc2ccc(Nc3ncc(C(F)(F)F)c(O[C@H]4CC[C@@](C)(O)CC4)n3)cc2OCC1` [Example 93, (1s,4s)-1-methyl-4-((2-((4-methyl-3,4,5,6-tetrahydro-2H-benzo[b][1,4,7]dioxazolin-9-yl)amino)-5-(trifluoromethyl)pyrimidin-4-yl)oxy)cyclohexan-1-ol]: the IC50 in test [1] was 100 to 500 nM; in test [2] it was less than 100 nM.
Regarding `CN1CCOc2ccc(Nc3ncc(C(F)(F)F)c(NC[C@@H]4CCO4)n3)cc2OCC1` [Example 92, (S)-N^2-(4-methyl-3,4,5,6-tetrahydro-2H-benzo[b][1,4,7]dioxazolin-9-yl)-N^4-(oxetan-2-ylmethyl)-5-(trifluoromethyl)pyrimidin-2,4-diamine], the inhibition at 2 µM in test [1] fell in the range of 40 to 79%. In test [2], this compound registered an IC50 of less than 100 nM.
Consider `CN1CCOc2ccc(Nc3ncc(C(F)(F)F)c(NCC(C)(C)O)n3)cc2OCC1` [Example 8, 2-methyl-1-((2-((4-methyl-3,4,5,6-tetrahydro-2H-benzo[b][1,4,7]dioxazolin-9-yl)amino)-5-(trifluoromethyl)pyrimidin-4-yl)amino)propan-2-ol], for which the inhibition at 2 µM in test [1] was greater than 80%.
As for `CN1CCOc2ccc(Nc3ncc(C(F)(F)F)c(NCC4(C#N)CC4)n3)cc2OCC1` [Example 96, 1-(((2-((4-methyl-3,4,5,6-tetrahydro-2H-benzo[b][1,4,7]dioxazolin-9-yl)amino)-5-(trifluoromethyl)pyrimidin-4-yl)amino)methyl)cyclopropan-1-carbonitrile], in test [1], the inhibition at 1 µM was greater than 0%.
In the case of `CN1CCOc2ccc(Nc3ncc(F)c(O[C@H]4CC[C@@](C)(O)CC4)n3)cc2OCC1` [Example 100, (1s,4s)-4-((5-fluoro-2-((4-methyl-3,4,5,6-tetrahydro-2H-benzo[b][1,4,7]dioxazolin-9-yl)amino)pyrimidin-4-yl)oxy)-1-methylcyclohexan-1-ol], in test [1], the inhibition at 1 µM lay in the range of 40 to 79%. Also, the IC50 in test [2] fell in the range of 100 to 500 nM.
With `CN1CCOCCOc2ccc(Nc3nc(NCC(C)(C)O)c4cc[nH]c4n3)cc2OCC1` [Example 90, 2-methyl-1-((2-((7-methyl-2,3,6,7,8,9-hexahydro-5H-benzo[b][1,4,7]trioxa[10]azacyclododecan-12-yl)amino)-7H-pyrrolo[2,3-d]pyrimidin-4-yl)amino)propan-2-ol], in test [1], the inhibition at 2 µM is greater than 80%.
As for `COCc1ccccc1Nc1nc(Nc2ccc3c(c2)OCCN(C)CCO3)ncc1C(F)(F)F` [Example 94, N^4-(2-(methoxymethyl)phenyl)-N^2-(4-methyl-3,4,5,6-tetrahydro-2H-benzo[b][1,4,7]dioxazolin-9-yl)-5-(trifluoromethyl)pyrimidin-2,4-diamine], the inhibition at 1 µM in test [1] was greater than 0%.
As for `CN1CCOCCOc2ccc(Nc3ncc(F)c(O[C@H]4CC[C@@](C)(O)CC4)n3)cc2OCC1` [Example 103, (1s,4s)-4-((5-fluoro-2-((7-methyl-2,3,6,7,8,9-hexahydro-5H-benzo[b][1,4,7]trioxa[10]azacyclododecan-12-yl)amino)pyrimidin-4-yl)oxy)-1-methylcyclohexan-1-ol], the IC50 in test [1] was less than 100 nM; in test [2], 100 to 500 nM.
Turning to `CN1CCOc2ccc(Nc3ncc(C(F)(F)F)c(Nc4ccccc4)n3)cc2OCC1` [Example 91, N^2-(4-methyl-3,4,5,6-tetrahydro-2H-benzo[b][1,4,7]dioxazolin-9-yl)-N^4-phenyl-5-(trifluoromethyl)pyrimidin-2,4-diamine], the half-inhibitory concentration (IC50) in test [1] and in test [2] was less than 100 nM each time.
In the case of `CN1CCOc2ccc(Nc3ncc(Cl)c(O[C@H]4CC[C@@](C)(O)CC4)n3)cc2OCC1` [Example 102, (1s,4s)-4-((5-chloro-2-((4-methyl-3,4,5,6-tetrahydro-2H-benzo[b][1,4,7]dioxazolin-9-yl)amino)pyrimidin-4-yl)oxy)-1-methylcyclohexan-1-ol], the inhibition at 1 µM in test [1] is greater than 0%. The same compound had an IC50 in test [2] of less than 100 nM.
`Cc1cnc(Nc2ccc3c(c2)OCCN(C)CCO3)nc1O[C@H]1CC[C@@](C)(O)CC1` [Example 101, (1s,4s)-1-methyl-4-((5-methyl-2-((4-methyl-3,4,5,6-tetrahydro-2H-benzo[b][1,4,7]dioxazolin-9-yl)amino)pyrimidin-4-yl)oxy)cyclohexan-1-ol]: in test [1], the inhibition at 1 µM lay within 40 to 79%.
Consider `CN1CCOCCOc2ccc(Nc3ncc(C(F)(F)F)c(NC[C@@H]4CCO4)n3)cc2OCC1` [Example 88, (S)-N^2-(7-methyl-2,3,6,7,8,9-hexahydro-5H-benzo[b][1,4,7]trioxa[10]azacyclododecan-12-yl)-N^4-(oxetan-2-ylmethyl)-5-(trifluoromethyl)pyrimidin-2,4-diamine], for which the inhibition at 2 µM in test [1] is greater than 80%.
